Measurements reported in patent US20220024877A1 (Kansas State University Research Foundation, priority 2018, published 2022).
Converted amounts (≈) assume the structure as drawn. Read-outs that look alike come from different tables or passages of the source.

What was measured:
S. aureus strain 1471 = experiment: Drop assay against S. aureus strain 1471 with or without copper
Protocol: For the drop assay, bacteria were grown in wells with or without copper, using a 1:2 drug titration starting at 10 μM.

[1] = Therapeutic index (approx.)
[2] = log P (octanol/water partition coefficient); format: physicochemical
MRSA = experiment: In vitro activity against S. aureus (MRSA), MIC with or without Cu supplementation; conditions: Staphylococcus aureus, MRSA
Protocol: S. aureus was inoculated in Mueller-Hinton medium from frozen stocks and grown for 2-4 h (until reaching an OD600˜1) at 37° C. while shaking. Once the OD was reached, bacteria were harvested and diluted in Phenolred-free RPMI1640 medium to an OD of 0.01 (=inoculum). Test compounds where diluted from frozen DMSO-stocks were diluted in Phenolred-free RPMI1640 medium with or without Cu supplementation (100 μM) and serially diluted in 96-well plates in the same medium to achieve a final concentration of between 0.08 and 10 μM after addition of an equal volume of inoculum. Medium-only controls and growth controls in the absence of test compounds were also included. The plates were placed in sealed bags and incubated at 37° C. After 15-20 h incubation time, an OD600 reading was taken and analyzed. […] If kinetic data were required, resazurin was added to each well. Using a plate reader with incubation chamber, resazurin conversion was monitored by fluorescence reading every 20 min for up to 24 h. After normalizing the data to respective controls, the MIC was determined using the same definition as above.

[3] = Copper(I) binding constant of NNSN compounds (1H-NMR titration with CuBr in D4-methanol); conditions: for Copper (I) binding constant: Table I
Protocol: They were recorded in D4-methanol by means of adding aliquots of a 5 mmol CuBr stock solution in D4-methanol to the 1 mmol NNSN-compound, resulting in 0, 0.5, 1.0, 2.0 and 3.0 mmol CuBr concentration in D4-methanol.

[4] = tested on: Avirulent Mtb strain mc26206 (H37Rv ΔpanCD ΔleuCD, double auxotroph); experiment: microbe, parasite or virus in culture; format: cell-based; conditions: Mycobacterium tuberculosis
[5] = tested on: S. aureus clinical isolate SA3; experiment: Zinc-activated activity, MIC with Zn2+ as trigger; conditions: Staphylococcus aureus
[6] = read-out: MIC* against MRSA (μM), kinetic data (determined from bacteria growth experiments), resulting in IC50 values similar to MIC values

Nc1ccn(C(=S)Nc2ccc(Cl)cc2)n1 [APM03, 3-amino-N-(4-chlorophenyl)-1H-pyrazole-1-carbothioamide]
MIC (S. aureus strain 1471; Staphylococcus aureus, 1471, read-out: MIC: +50 μM Cu): 1.25 µM (≈ 0.316 µg/mL) | MIC (S. aureus strain 1471; Staphylococcus aureus, MRSA, read-out: MIC against MRSA (clinical isolate 1471)): 0.6 µM (≈ 0.152 µg/mL) | Therapeutic index (approx.) [1]: 2 | logP [2]: 2.1 | MIC (MRSA; read-out: MIC against the clinical isolate SA3, SA3 resistant to ampicillin, clindamycin, erythromycin, penicillin, and tetracycline): 70 µM (≈ 17.7 µg/mL) | MIC (MRSA; [6]): 0.07 µM (≈ 0.0177 µg/mL) | Copper (I) binding constant [3]: 53225 M⁻¹ | IC50 ([4]; read-out: IC50 +Cu): 0.3 µM | IC50 ([4]; read-out: IC50 −Cu): > 12.5 µM | MIC90 ([4]; read-out: MIC90 +Cu): 0.5 µM (≈ 0.126 µg/mL) | MIC90 ([4]; read-out: MIC90 −Cu): > 25 µM | MIC [5]: 2.5 µM (≈ 0.632 µg/mL)

Cc1ccn(C(=S)Nc2ccc(Cl)cc2)n1 [SB17]
Binding constant ([3]; Cu-NNSN 1:1 stoichiometry): 54020 M⁻¹ | MIC [5]: 5 µM (≈ 1.26 µg/mL)

Nc1ccn(C(=S)Nc2ccc([N+](=O)[O-])cc2)n1 [SB27, 3-amino-N-(4-nitrophenyl)-1H-pyrazole-1-carbothioamide]
Therapeutic index (approx.) [1]: 1 | MIC (MRSA; [6]): 0.3 µM (≈ 0.079 µg/mL) | Copper (I) binding constant [3]: 10460 M⁻¹
